Results published in patent publication US9708314B2, “Heterocyclic amide compound” (NISSAN CHEMICAL INDUSTRIES, LTD., priority 2013, dated 2017).

Key:
Type in all cases: in vivo
Setaria viridis = experiment: Test Example 4: herbicidal effect by application to foliage (diluvial soil, plastic box); settings: application to foliage, application herbicide amount 320 g/ha
Outline: (§1)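 Plants were grown in sterilized diluvial soil in a greenhouse at 25-30° C for 14 days, then sprayed on stems and leaves with water-diluted emulsion formulation at set rates in g/ha. Weed control and crop injury were scored 3 weeks after treatment on a 0-5 herbicidal-ratio scale, from 0 (≤5%) to 5 (≥90%).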

Chenopodium album = experiment: as above; settings: application to foliage, application herbicide amount 320 g/ha
Outline: as §1

Veronica persica = experiment: as above; settings: application to foliage, application herbicide amount 320 g/ha
Outline: as §1

Lolium multiflorum Lam. = experiment: as above; settings: application to foliage, application herbicide amount 320 g/ha
Outline: as §1

Galium spurium = experiment: as above; settings: application to foliage, application herbicide amount 320 g/ha
Outline: as §1

Alopecurus myosuroides = experiment: as above; settings: application to foliage, application herbicide amount 320 g/ha
Outline: as §1

Avena fatua = experiment: as above; settings: application to foliage, application herbicide amount 320 g/ha
Outline: as §1

[1] = test system: Echinochloa crus-galli var. crus-galli; experiment: as above; settings: application to foliage, application herbicide amount 320 g/ha
Outline: as §1

Apera spica-venti. = experiment: as above; settings: application to foliage, application herbicide amount 320 g/ha
Outline: as §1

Digitaria ciliaris = experiment: as above; settings: application to foliage, application herbicide amount 320 g/ha
Outline: as §1

Abutilon theophrasti = experiment: as above; settings: application to foliage, application herbicide amount 320 g/ha
Outline: as §1

Scirpus juncoides = experiment: Test Example 1: herbicidal activity, application before weed generation in submerged conditions; settings: Application herbicide amount 320 g/ha; Seventeenth Table
Outline: (§2)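 Pre-emergence application to water surface of submerged pots (4 cm depth, alluvial soil) on sowing day, with 2.5-leaf rice transplanted; emulsion diluted to g/ha rates. Grown in greenhouse at 25–30 °C; 0–5 herbicidal/crop-effect score after three weeks.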

Monochoria vaginalis = experiment: as above; settings: Application herbicide amount 320 g/ha; Seventeenth Table
Outline: as §2

[2] = test system: Echinochloa oryzacola Vasing.; experiment: as above; settings: Application herbicide amount 320 g/ha; Seventeenth Table
Outline: as §2

[3] = test system: transplanted Oryza sativa; experiment: Test Example 1: effect on crop, application before weed generation in submerged conditions; settings: Application herbicide amount 320 g/ha; Seventeenth Table
Outline: as §2

Structure (SMILES)	G (Setaria viridis) herbicidal effect (Setaria viridis)	O (Chenopodium album) herbicidal effect (Chenopodium album)	R (Veronica persica) herbicidal effect (Veronica persica)	K (Lolium multiflorum Lam.) herbicidal effect (Lolium multiflorum Lam.)	Q (Galium spurium) herbicidal effect (Galium spurium)	J (Alopecurus myosuroides) herbicidal effect (Alopecurus myosuroides)	I (Avena fatua) herbicidal effect (Avena fatua)	H (Echinochloa crus-galli var. crus-galli) herbicidal effect [1]	L (Apera spica-venti.) herbicidal effect (Apera spica-venti.)	F (Digitaria ciliaris) herbicidal effect (Digitaria ciliaris)	M (Abutilon theophrasti) herbicidal effect (Abutilon theophrasti)	B: Scirpus juncoides (herbicidal effect grade) (Scirpus juncoides)	C: Monochoria vaginalis (herbicidal effect grade) (Monochoria vaginalis)	A: Echinochloa oryzicola Vasing. (herbicidal effect grade) [2]	a: transplanted Oryza sativa (effect on crop grade) [3]
Cc1nnc(NC(=O)c2ccc(C(F)(F)F)n3c(C[S+](C)[O-])nnc23)o1 (stereo not drawn) [1-036]	5 (Herbicidal ratio of 90% or more (almost completely withered))	5 (Herbicidal ratio of 90% or more (almost completely withered))	5 (Herbicidal ratio of 90% or more (almost completely withered))	3 (Herbicidal ratio of 40% or more and less than 70%)	4 (Herbicidal ratio of 70% or more and less than 90%)	3 (Herbicidal ratio of 40% or more and less than 70%)	4 (Herbicidal ratio of 70% or more and less than 90%)	5 (Herbicidal ratio of 90% or more (almost completely withered))	4 (Herbicidal ratio of 70% or more and less than 90%)	5 (Herbicidal ratio of 90% or more (almost completely withered))	5 (Herbicidal ratio of 90% or more (almost completely withered))	3 (Herbicidal ratio of 40% or more and less than 70%)	3 (Herbicidal ratio of 40% or more and less than 70%)	4 (Herbicidal ratio of 70% or more and less than 90%)	4 (Herbicidal ratio of 70% or more and less than 90%)
Cc1nnc(NC(=O)c2ccc(C(F)(F)F)n3c(CS(C)(=O)=O)nnc23)o1 [1-037]	4 (Herbicidal ratio of 70% or more and less than 90%)	5 (Herbicidal ratio of 90% or more (almost completely withered))	5 (Herbicidal ratio of 90% or more (almost completely withered))	2 (Herbicidal ratio of 20% or more and less than 40%)	4 (Herbicidal ratio of 70% or more and less than 90%)	2 (Herbicidal ratio of 20% or more and less than 40%)	3 (Herbicidal ratio of 40% or more and less than 70%)	4 (Herbicidal ratio of 70% or more and less than 90%)	3 (Herbicidal ratio of 40% or more and less than 70%)	5 (Herbicidal ratio of 90% or more (almost completely withered))	5 (Herbicidal ratio of 90% or more (almost completely withered))	2 (Herbicidal ratio of 20% or more and less than 40%)	3 (Herbicidal ratio of 40% or more and less than 70%)	0 (Herbicidal ratio of 5% or less (almost no effect))	0 (Herbicidal ratio of 5% or less (almost no effect))
